# In US20150111262A1, “METHODS AND MATERIALS FOR PRODUCING FIVE CARBON BUILDING BLOCKS FROM PROLINE” (INVISTA North America S.á r.l., priority 2013, published 2015):
# Legend:
# [1] = test system: reversible 5-aminovalerate transaminase; settings: Barker et al., J. Biol. Chem., 1987; cited from earlier work
# [2] = test system: reversible ω-transaminase (SEQ ID NO: 7); settings: Kaulmann et al., 2007; cited from earlier work
# [3] = test system: reversible 4-aminobubyrate:2-oxoglutarate transaminase; settings: Yonaha et al., Eur. J. Biochem., 1985; cited from earlier work
# [4] = test system: ω-transaminase of SEQ ID NO: 9; assay: ω-transaminase activity, glutarate semialdehyde to 5-aminopentanoate (reverse direction); format: biochemical, Pseudomonas syringae; settings: cell free extract; 10 mM glutarate semialdehyde, 10 mM L-alanine, pH 7.5, 25° C., 4 h; RP-HPLC; FIG. 9
# Experimental: A sequence encoding an N-terminal His-tag was added to the genes from Chromobacterium violaceum and Pseudomonas syringae encoding the ω-transaminases of SEQ ID NOs: 7 and 9, respectively (see FIG. 7) such that N-terminal HIS tagged ω-transaminases could be produced. Each of the resulting modified genes was cloned into a pET21a expression vector under control of the T7 promoter and each expression vector was transformed into a BL21[DE3] E. coli host. The resulting recombinant E. coli strains were cultivated at 37° C. in a 250 mL shake flask culture containing 50 mL LB media and antibiotic selection pressure, with shaking at 230 rpm. Each culture was induced overnight at 16° C. using 1 mM IPTG.
# The pellet from each induced shake flask culture was harvested via centrifugation. Each pellet was resuspended and lysed via sonication. The cell debris was separated from the supernatant via centrifugation and the cell free extract was used immediately in enzyme activity assays.
# Enzyme activity in the reverse direction (i.e., glutarate semialdehyde to 5-aminopentanoate) were performed in a buffer composed of a final concentration of 50 mM HEPES buffer (pH=7.5), 10 mM glutarate semialdehyde, 10 mM L-alanine and 100 μM pyridoxyl 5′ phosphate. […] The formation of pyruvate was quantified via RP-HPLC.
# [5] = test system: carboxylate reductase of SEQ ID NO 6; assay: carboxylate reductase activity, glutarate semialdehyde to pentanedial; format: biochemical, Segniliparus rotundus; settings: SEQ ID NO 6, enhanced by sfp gene product; 2 mM glutarate semialdehyde, 1 mM ATP, 1 mM NADPH, pH 7.5, room temperature, 20 min; FIG. 15
# Experimental: The N-terminal His-tagged carboxylate reductase of SEQ ID NO 6 (see Example 2 and FIG. 7) was assayed using glutarate semialdehyde as substrate. The enzyme activity assay was performed in triplicate in a buffer composed of a final concentration of 50 mM HEPES buffer (pH=7.5), 2 mM glutarate semialdehyde, 10 mM MgCl2, 1 mM ATP and 1 mM NADPH. The enzyme activity assay reaction was initiated by adding purified carboxylate reductase and phosphopantetheine transferase or the empty vector control to the assay buffer containing the glutarate semialdehyde and then incubated at room temperature for 20 min. The consumption of NADPH was monitored by absorbance at 340 nm.
# [6] = biological target: T1, carboxylate reductase of SEQ ID NO: 1 (Mycobacterium marinum, UniProt B2HN69); assay: carboxylate reductase activity, 5-hydroxypentanoate to 5-hydroxypentanal; format: biochemical; settings: SEQ ID NO 1, enhanced by sfp gene product; 1 mM ATP, 1 mM NADPH, pH 7.5, room temperature, 20 min; FIG. 12
# T1 construct: His-tag (N); made in house; host or cells: E. coli BL21[DE3], pET Duet
# Experimental: (§1) A sequence encoding a His-tag was added to the genes from Mycobacterium marinum, Mycobacterium smegmatis, Segniliparus rugosus, Mycobacterium massiliense, and Segniliparus rotundus that encode the carboxylate reductases of SEQ ID NOs: 1, 2, 3, 5 and 6, respectively (see FIG. 7) such that N-terminal HIS tagged carboxylate reductases could be produced. Each of the modified genes was cloned into a pET Duet expression vector alongside a sfp gene encoding a His-tagged phosphopantetheine transferase from Bacillus subtilis, both under control of the T7 promoter.
# (§2) Each expression vector was transformed into a BL21[DE3] E. coli host and the resulting recombinant E. coli strains were cultivated at 37° C. in a 250 mL shake flask culture containing 50 mL LB media and antibiotic selection pressure, with shaking at 230 rpm. Each culture was induced overnight at 37° C. using an auto-induction media.
# (§3) The pellet from each induced shake flask culture was harvested via centrifugation. Each pellet was resuspended and lysed via sonication. […]
# (§4) Enzyme activity (i.e., 5-hydroxypentanoate to 5-hydroxypentanal) assays were performed in triplicate in a buffer composed of a final concentration of 50 mM HEPES buffer (pH=7.5), 2 mM 5-hydroxypentanal, 10 mM MgCl2, 1 mM ATP, and 1 mM NADPH. […] The consumption of NADPH was monitored by absorbance at 340 nm.
# [7] = test system: carboxylate reductase of SEQ ID NO: 2; assay: as above; format: biochemical, Mycobacterium smegmatis; settings: SEQ ID NO 2, enhanced by sfp gene product; 1 mM ATP, 1 mM NADPH, pH 7.5, room temperature, 20 min; FIG. 12
# Experimental: as §1, §2, §3, §4
# [8] = test system: carboxylate reductase of SEQ ID NO: 3; assay: as above; format: biochemical, Segniliparus rugosus; settings: SEQ ID NO 3, enhanced by sfp gene product; 1 mM ATP, 1 mM NADPH, pH 7.5, room temperature, 20 min; FIG. 12
# Experimental: as §1, §2, §3, §4
# [9] = test system: carboxylate reductase of SEQ ID NO: 5; assay: as above; format: biochemical, Mycobacterium massiliense; settings: SEQ ID NO 5, enhanced by sfp gene product; 1 mM ATP, 1 mM NADPH, pH 7.5, room temperature, 20 min; FIG. 12
# Experimental: as §1, §2, §3, §4
# [10] = test system: carboxylate reductase of SEQ ID NO: 6; assay: as above; format: biochemical, Segniliparus rotundus; settings: SEQ ID NO 6, enhanced by sfp gene product; 1 mM ATP, 1 mM NADPH, pH 7.5, room temperature, 20 min; FIG. 12
# Experimental: as §1, §2, §3, §4
# diamine transaminase = settings: Kim, 1964; cited from earlier work
# T1 sequence (B2HN69 whole entry): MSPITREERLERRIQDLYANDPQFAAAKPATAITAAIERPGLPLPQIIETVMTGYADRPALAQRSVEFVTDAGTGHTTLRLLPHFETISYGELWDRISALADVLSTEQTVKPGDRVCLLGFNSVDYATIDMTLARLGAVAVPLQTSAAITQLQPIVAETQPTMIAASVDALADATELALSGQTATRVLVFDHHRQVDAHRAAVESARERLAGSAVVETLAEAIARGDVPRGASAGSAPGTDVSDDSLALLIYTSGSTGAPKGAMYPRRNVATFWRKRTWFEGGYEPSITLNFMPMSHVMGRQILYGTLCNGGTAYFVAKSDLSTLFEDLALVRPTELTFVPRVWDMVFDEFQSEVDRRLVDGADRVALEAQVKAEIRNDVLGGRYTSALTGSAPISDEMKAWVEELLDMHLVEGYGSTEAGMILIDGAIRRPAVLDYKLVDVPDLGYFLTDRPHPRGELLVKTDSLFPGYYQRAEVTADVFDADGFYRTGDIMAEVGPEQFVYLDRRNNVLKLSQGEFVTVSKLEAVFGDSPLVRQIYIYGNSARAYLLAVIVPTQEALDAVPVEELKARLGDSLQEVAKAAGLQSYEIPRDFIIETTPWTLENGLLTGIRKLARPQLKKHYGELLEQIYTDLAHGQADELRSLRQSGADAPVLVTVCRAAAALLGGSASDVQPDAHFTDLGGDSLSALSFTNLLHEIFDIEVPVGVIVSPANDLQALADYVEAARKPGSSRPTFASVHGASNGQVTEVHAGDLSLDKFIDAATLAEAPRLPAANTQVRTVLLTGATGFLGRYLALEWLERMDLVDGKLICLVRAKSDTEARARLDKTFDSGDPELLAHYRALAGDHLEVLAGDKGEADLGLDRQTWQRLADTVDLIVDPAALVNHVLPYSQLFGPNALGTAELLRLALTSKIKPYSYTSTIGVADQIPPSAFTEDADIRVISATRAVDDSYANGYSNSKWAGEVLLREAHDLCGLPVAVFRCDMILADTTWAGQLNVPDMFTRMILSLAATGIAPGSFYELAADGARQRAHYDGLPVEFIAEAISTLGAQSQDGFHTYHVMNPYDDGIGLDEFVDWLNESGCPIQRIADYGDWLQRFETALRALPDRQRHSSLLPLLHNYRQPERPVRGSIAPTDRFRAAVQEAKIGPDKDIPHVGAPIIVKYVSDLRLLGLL
smiles,measurement,setting,value
NCCCCCC(=O)O [6-aminohexanoate],activity for the conversion to adipate semialdehyde,[1],demonstrated analogous activity
same,activity accepting as amino donor,[2],demonstrated analogous activity
same,activity for the conversion to adipate semialdehyde,[3],demonstrated analogous activity
O=CCCCC(=O)O [glutarate semialdehyde],acceptance as substrate (conversion of L-alanine to pyruvate) vs empty vector control,[4],accepted glutarate semialdehyde as substrate
same,"acceptance as substrate (consumption of NADPH, absorbance at 340 nm) vs empty vector control",[5],accepted glutarate semialdehyde as substrate
O=C(O)CCCCO [5-hydroxypentanoate],"acceptance as substrate (consumption of NADPH, absorbance at 340 nm) vs empty vector control",[6],accepted 5-hydroxypentanoate as substrate
same,"acceptance as substrate (consumption of NADPH, absorbance at 340 nm) vs empty vector control",[7],accepted 5-hydroxypentanoate as substrate
same,"acceptance as substrate (consumption of NADPH, absorbance at 340 nm) vs empty vector control",[8],accepted 5-hydroxypentanoate as substrate
same,"acceptance as substrate (consumption of NADPH, absorbance at 340 nm) vs empty vector control",[9],accepted 5-hydroxypentanoate as substrate
same,"acceptance as substrate (consumption of NADPH, absorbance at 340 nm) vs empty vector control",[10],accepted 5-hydroxypentanoate as substrate
"NCCCCCCCN [1,7 diaminoheptane]",diamine transaminase activity,diamine transaminase,demonstrated activity
